Measured values: patent US20240285808A1, “MOLECULAR PROBES FOR IN VIVO DETECTION OF ALDEHYDES” (The General Hospital Corporation, priority 2021, published 2024)
Several values for one entry are separate records, joined by “and”; a condition that tells them apart may be missing. Equal values may be shown once.

Experiments:
[1] = target: bovine serum albumin (BSA) (Bos taurus, UniProt P02769); test: Relaxivity measurements with BSA; type: binding; details: 1.4 T, 37° C., BSA 10 mg/mL
[2] = Relaxivity measurements in PBS; type: physicochemical; details: 1.4 T, 37° C.
[3] = target: T1, BSA-ALD (oxidized bovine serum albumin containing allysine aldehyde groups) (Bos taurus, UniProt P02769); test: Relaxivity measurements with BSA-Ald; type: binding; details: for r1, +BSA-Ald / r1, Bound to BSA-Ald: 1.4 T; for r1, +BSA-Ald / r1, Bound to BSA-Ald / increase of r1 in BSA^Ald compared to PBS value: 37° C.; for r1, +BSA-Ald: BSA-Ald 10 mg/mL; for r1, Bound to BSA-Ald: protein-bound species after NaBH3CN and ultrafiltration; for increase of r1 in BSA^Ald compared to PBS value: 1.41 T
T1 construct: made in house; host or cells: no expression host: BSA oxidised chemically with sodium ascorbate, ferric chloride and H2O2, then desalted on PD-10
T1 sequence (P02769 25-607): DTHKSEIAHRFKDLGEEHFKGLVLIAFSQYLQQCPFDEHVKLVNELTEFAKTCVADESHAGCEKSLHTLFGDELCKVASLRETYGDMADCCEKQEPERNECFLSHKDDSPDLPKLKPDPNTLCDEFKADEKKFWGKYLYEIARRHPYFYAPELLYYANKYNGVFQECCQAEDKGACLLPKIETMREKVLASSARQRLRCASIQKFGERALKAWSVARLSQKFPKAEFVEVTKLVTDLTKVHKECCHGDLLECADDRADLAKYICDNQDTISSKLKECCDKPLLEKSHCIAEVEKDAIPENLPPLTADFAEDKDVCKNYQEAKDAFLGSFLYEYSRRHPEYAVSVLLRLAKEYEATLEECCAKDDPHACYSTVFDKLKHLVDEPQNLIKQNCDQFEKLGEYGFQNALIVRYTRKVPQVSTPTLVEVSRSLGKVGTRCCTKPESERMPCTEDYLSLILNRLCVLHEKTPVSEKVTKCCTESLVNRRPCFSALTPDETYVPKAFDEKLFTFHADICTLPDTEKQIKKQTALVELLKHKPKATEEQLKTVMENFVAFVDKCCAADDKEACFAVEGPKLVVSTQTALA

[4] = tested on: liver of CCl4 injured mice; type: in vivo, mouse; details: for ΔCNR (liver to muscle): 100 μmol/kg i.v., group mean; for ΔCNR of liver, pair-wise comparison: individual mice ID 1-6
Protocol: CCl4 Liver Fibrosis Model:
Male C57BL/6 mice (Charles River Laboratories, Wilmington, MA) were treated with carbon tetrachloride for 12 weeks (0.1 ml of 20% CCl4 in olive oil the first week, 30% the second week, and 40% from weeks 3-12) by oral gavage, 2-3 times per week. Control mice were fed vehicle (olive oil) only.
A total of 53 C57BL/6 mice were included to study CCl4 induced hepatic fibrosis: • A. CCl4 for 12 weeks (n=20). Each mouse was imaged with probe 1 and then imaged again 24 hours later with probe 2. Probe 1 and Probe 2 were randomly chosen from GdDOTA, GdCHyd, Mn-12, Gd-9 and Gd-10. • B. Vehicle treated control (n=20). Each mouse was imaged with probe 1 and then imaged again 24 hours later with probe 2. Probe 1 and Probe 2 were randomly chosen from GdDOTA, Mn-12, GdCHyd, Gd-9, Gd-10. • C. CCl4 for 12 weeks (n=3, another 3 pair-wise comparison have been done in group A). Each mouse was imaged with probe 1 and then imaged again 24 hours later with probe 2. […] Each mouse was imaged with probe 1 and then imaged again 24 hours later with probe 2. Probe 1 and Probe 2 were randomly choosing from Gd-9 and Gd-10. • E. CCl4 for 12 weeks (n=3). Each mouse was imaged with Gd-9. After 24 hours, the same mouse was first injected with 1000 μmol/kg of Yb-9 and then injected with 100 μmol/kg of Gd-9 15 min after the Yb-9 injection.
Animals were anesthetized with isoflurane (1-2%) and placed in a specially designed cradle with body temperature maintained at 37° C. The inhaled isoflurane level was adjusted to maintain a respiration rate of 60±5 breaths per minute. The tail vein was cannulated for intravenous (i.v.) delivery of the contrast agent while the animal was positioned in the scanner. Imaging was performed at 4.7 T using a small bore animal scanner with a custom-built volume coil. Mice were imaged with a dose of 100 μmol/kg from 30 mM stock solution of Gd or Mn complex.
For mice liver imaging, a series of baseline images (3D T1 weighted fast low angle shot magnetic resonance imaging (FLASH)) were first acquired (repetition time/echo time=15/2 ms; flip angle, 30°; field of view, 48×30 mm^2; matrix size, […]; slice thickness, 0.25 mm; acquisition time, 3 minutes 20 seconds), then a bolus of Gd or Mn complex was administered i.v. and imaging performed for a period of 45 min p.i. with the repetition acquisition of 3D T1 weighted FLASH sequences. Following the imaging session, animals were sacrificed (75 min p.i.) and liver tissue was subjected to histopathologic analysis.
For liver imaging analysis, a region of interest (ROI) was manually traced encompassing the liver parenchyma while avoiding major blood vessels. A second ROI was placed on the dorsal muscle visible in the same image slice to quantify the signal intensity in the muscle for comparison. Seven ROIs were placed in the field of view without any tissue (air) to measure the variation in background signal. More than 20 axial slices per mouse across the entire liver were analyzed in this fashion. […] Contrast to noise ratio (CNR) was calculated by measuring the difference in signal intensity (SI) between liver and muscle and normalizing to the standard deviation of the signal in the air, eq 21. ΔCNR was calculated by subtracting CNR measured prior to probe injection (CNRPre) from CNR measured after injection (CNRPost), eq 22. […]

[5] = CCl4 injured mice, 45 min post injection

bovine serum albumin (BSA), sequence (P02769 25-607): as above

## CN(C)C(CCC(=O)NCCCN1CCN(CC(=O)[O-])Cc2cccc(n2)CN(CC(=O)[O-])CC1)C(=O)O.[Mn+2] (stereo not drawn) [Mn-18]
[1]
  r1, +BSA: 3.5 mM⁻¹ s⁻¹
[2]
  r1, PBS: 3.1 mM⁻¹ s⁻¹
[3]
  r1, +BSA-Ald: 3.6 mM⁻¹ s⁻¹

## NNC(CCC(=O)NCCCN1CCN(CC(=O)[O-])Cc2cccc(n2)CN(CC(=O)[O-])CC1)C(=O)O.[Mn+2] (stereo not drawn) [Mn-15]
[4]; 20 minutes post injection
  fold higher DCNR in CCl4 treated vs vehicle treated mice: 3 fold
[4]; [5]
  ΔCNR (liver to muscle): 1.2 ± 0.2
[1]
  r1, +BSA: 3.6 mM⁻¹ s⁻¹
[2]
  r1, PBS: 3.1 mM⁻¹ s⁻¹
[3]
  turn-on in relaxivity upon binding to allysine (BSA-Ald bound vs unbound): 4 fold and ~3 fold
  r1, +BSA-Ald: 5.9 mM⁻¹ s⁻¹
  r1, Bound to BSA-Ald: 12.7 mM⁻¹ s⁻¹
  increase of r1 in BSA^Ald compared to PBS value: 90%
[3]; 1.4T
  turn on in relaxivity: 270%

## NN1CCN(C(=O)CCC(C(=O)[O-])N2CCN(CC(=O)[O-])CCN(C(CCC(=O)N3CCN(N)CC3)C(=O)[O-])CCN(CC(=O)[O-])CC2)CC1.[Gd+3] (stereo not drawn) [Gd-10, trans-1,7-Gd-(CHyd)2]
[4]; [5]
  ΔCNR (liver to muscle): 1.3±0.4 and 1.5 ± 0.9
  ΔCNR of liver, pair-wise comparison: 1.3 and 2.3 and 1.2 and 0.9 and 1.4 and 1.0
[1]
  r1, +BSA: 6.6 mM⁻¹ s⁻¹
[2]
  r1, PBS: 6.6 mM⁻¹ s⁻¹
[3]
  r1, +BSA-Ald: 9.0 mM⁻¹ s⁻¹
  r1, Bound to BSA-Ald: 18.7 mM⁻¹ s⁻¹
  increase of r1 in BSA^Ald compared to PBS value: 36%

## NOC(CCC(=O)NCCCN1CCN(CC(=O)[O-])Cc2cccc(n2)CN(CC(=O)[O-])CC1)C(=O)O.[Mn+2] (stereo not drawn) [Mn-16]
[1]
  r1, +BSA: 3.4 mM⁻¹ s⁻¹
[2]
  r1, PBS: 3.1 mM⁻¹ s⁻¹
[3]
  turn-on in relaxivity upon binding to allysine (BSA-Ald bound vs unbound): 4 fold
  r1, +BSA-Ald: 7.7 mM⁻¹ s⁻¹
  r1, Bound to BSA-Ald: 12.7 mM⁻¹ s⁻¹

## NN1CCN(C(=O)CCC(C(=O)[O-])N2CCN(CC(=O)[O-])CCN(CC(=O)[O-])CCN(C(CCC(=O)N3CCN(N)CC3)C(=O)[O-])CC2)CC1.[Gd+3] (stereo not drawn) [Gd-9, cis-1,4-Gd-(CHyd)2]
[4]; CCl4 injured mice, 45 min p.i.
  fold higher ΔCNR compared to Gd-CHyd (monobinder): 10 fold
[4]; [5]
  ΔCNR (liver to muscle): 2.2±0.8 and 2.2 ± 0.9
  ΔCNR of liver, pair-wise comparison: 1.9 (2×) and 3.2 and 1.3 and 2.1 and 1.5
[4]; CCl4 injured mice, 45 min post injection, blocking dose of Yb-9 (1000 μmol/kg) 15 min before, individual mice ID 1-3
  ΔCNR of liver, With blocking: 0.1 (2×) and 0.3
[4]; CCl4 injured mice, 45 min post injection, individual mice ID 1-3
  ΔCNR of liver, Without blocking: 3.6 and 2.7 and 3.0
[1]
  r1, +BSA: 6.6 mM⁻¹ s⁻¹ and 6.5 mM⁻¹ s⁻¹
[2]
  r1, PBS: 6.6 mM⁻¹ s⁻¹
[3]
  fold higher relaxivity than Gd-CHyd: 2.3 fold
  higher protein-bound relaxivity than monobinder Gd-CHyd: 50%
  r1, +BSA-Ald: 11.7 mM⁻¹ s⁻¹ and 11.2 mM⁻¹ s⁻¹
  r1, Bound to BSA-Ald: 17.7 mM⁻¹ s⁻¹
  increase of r1 in BSA^Ald compared to PBS value: 77%

## NNCC(=O)NCCCN1CCN(CC(=O)[O-])Cc2cccc(n2)CN(CC(=O)[O-])CC1.[Mn+2] [Mn-17]
[1]
  r1, +BSA: 3.5 mM⁻¹ s⁻¹
[2]
  r1, PBS: 3.0 mM⁻¹ s⁻¹
[3]
  turn-on in relaxivity upon binding to allysine (BSA-Ald bound vs unbound): 4 fold and ~3 fold
  r1, +BSA-Ald: 5.6 mM⁻¹ s⁻¹
  r1, Bound to BSA-Ald: 11.4 mM⁻¹ s⁻¹
  increase of r1 in BSA^Ald compared to PBS value: 90%
